Test results published in patent publication US8841277B2, “Methods for treating non-small cell lung cancer using 5-azacytidine” (Celgene Corporation, priority 2009, dated 2014).
“Also recorded” adds a separate entry of the source. Like-named read-outs stand apart in the source and are kept apart here.

Legend:
A549 cells [1] = assay: Cell viability (CyQuant assay), A549; format: cell-based; conditions: 72 hours; for HillSlope / LogIC50 / IC50: A549 viability, best-fit value; for LogIC50: log(inhibitor) vs. normalized response -- Variable slope; for EC50 / IC50: Homo sapiens; for EC50: A549, read-out: EC50 of effect on viability
Method: (§1) Certain NSCLC cell lines (H460, H1299, A549, and H1975) were purchased from American Type Culture Collection (ATCC; Manassas, Va.). The H23NSCLC cell line was obtained from the National Cancer Institute (NCI; Bethesda, Md.). Cell lines were cultured in their respective media, as recommended by ATCC and NCI. AZA was manufactured at Aptuit (Greenwich, Conn.) for Celgene (Summit, N.J.), while DAC was purchased from Sigma-Aldrich (St. Louis, Mo.). In all experiments, cells were seeded 24 hours before drug treatment and incubated at 37° C./5% CO2, For cell viability assays, H460, H1299, A549, H23, and H1975 cells were seeded in triplicate at 1×10^3, 1×10^3, 1×10^3, 4×10^3, and 4×10^3 cells per well, respectively, in 96-well plates, using 200 μL of medium per well. Fresh drug was added every 24 hours by replacing medium with drug-containing medium. For all other assays, cells were seeded at 0.6-1.2×10^5 cells per well, in 6-well plates, using 4 mL of medium per well, with fresh drug added directly to the medium every 24 hours.
(§2) Cell viability was assessed using the CyQuant assay (Life Technologies Corporation; Carlsbad, Calif.). Fluorescence was measured with a spectrophotometer (Molecular Devices; Sunnyvale, Calif.), and EC50 values were calculated in Prism® version 5.01 (GraphPad Software, Inc.; La Jolla, Calif.), using results from three independent experiments.
(§3) The six data sets represent calculations of EC50 values from raw data using Prism®. The standard deviation among the three independent experiments was determined at each drug concentration. For some of the cell lines, Prism® was not able to calculate the EC50 for DAC. For those curves that an EC50 was available, the SE (Std. Error) was acceptable (SE of the logEC50 should be less than 0.5), meaning that the standard errors were not too large. The 95% Confidence Intervals for the EC50 were considered as a measure of error.

H460 cells = assay: Cell viability (CyQuant assay), H460; format: cell-based; conditions: for HillSlope / LogIC50 / IC50: H460 viability, best-fit value
Method: as §1, §2, §3

H1299 cells [2] = assay: Cell viability (CyQuant assay), H1299; format: cell-based; conditions: 72 hours; for HillSlope / LogIC50 / IC50: H1299 viability, best-fit value; for EC50 / IC50: Homo sapiens, NCI-H1299; for EC50: H1299, read-out: EC50 of effect on viability
Method: as §1, §2, §3

A549 cells [3] = assay: Cell cycle distribution (NIM-DAPI), A549; format: cell-based
Text: (§4) These studies examined the cell cycle distribution of NSCLC cells treated with AZA or DAC using NIM-DAPI analysis.
(§5) For cell cycle distribution, cells were stained with the NIM-DAPI reagent (Beckman Coulter, Inc.; Fullerton, Calif.). For measurement of early- and late-apoptotic cell populations, cells were stained with AnnexinV-FITC and 7-AAD reagents (Beckman Coulter, Inc.). Samples were processed according to manufacturer's instructions and analyzed on a Cell Lab Quanta MPL flow cytometer (Beckman Coulter, Inc.). […] Data were also collected for untreated cells as control.

H1299 cells [4] = assay: Cell cycle distribution (NIM-DAPI), H1299; format: cell-based
Text: as §4, §5

H1975 cells = assay: Cell cycle distribution (NIM-DAPI), H1975; format: cell-based; conditions: 72-hour treatment, 0.3-10 μM
Text: as §4, §5

NSCLC cell types = assay: Apoptosis (AnnexinV-FITC/7-AAD), summary; format: cell-based; conditions: summary of studies
Text: as §5

[5] = test system: LINE-1 elements in H1299 cells; assay: LINE-1 Methylation Assay, H1299; format: cell-based; conditions: for DNA hypomethylation (LINE-1 methylation): 48 hours or 72 hours
Method: Genomic DNA was purified from cells using the DNeasy Blood and Tissue Kit (Qiagen; Valencia, Calif.), according to the manufacturer's instructions. DNA yield was quantitated with a NanoDrop 8000 spectrophotometer (Thermo Fisher Scientific, Inc.). DNAs (1 μg/sample) were submitted to EpigenDx (Worcester, Mass.) for bisulfate conversion and pyrosequencing of LINE-1 elements. Briefly, 1 μg of DNA was bisulfite-treated using the Zymo DNA Methylation Kit (Zymo Research; Orange, Calif.) and eluted in 10 μL volume. DNA eluate (1 μL) was used for PCR with biotinylated primers to the LINE-1 locus, converting the PCR product to single-stranded DNA templates. PCR products (each 10 μL) were sequenced by Pyrosequencing PSQ96 HS System (Biotage AB), following the manufacturer's instructions (Biotage; Kungsgatan, Sweden). The methylation status of each locus was analyzed individually as a T/C SNP using QCpG software (Biotage). Percent LINE-1 methylation represents the average percent methylation of four CpG sites in duplicate samples.
At the highest drug concentration tested (3 μM), LINE-1 methylation was less affected, possibly due to reduced drug incorporation as a result of inhibited cell proliferation.

DNMT1 = DNMT1 protein depletion, H23; format: cell-based; conditions: H23 cell line
Method: Reduced DNMT1 levels were detected in these cell lines as early as 4 hours after drug treatment (FIG. 17).

H1299 cells [6] = assay: Gene expression microarray analysis, H1299; format: cell-based, human; conditions: 48 hours; for Downregulated Genes: AZA-Specific / DAC-Specific Genes (number) / Upregulated Genes: AZA-Specific / DAC-Specific Genes (number) / Downregulated Genes: Genes in Common (number) / Upregulated Genes: Genes in Common (number): H1299; for Downregulated Genes: Genes in Common (number) / Upregulated Genes: Genes in Common (number): regulated by both AZA and DAC;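 on Downregulated Genes: AZA-Specific / DAC-Specific Genes (number): drug dose range 0.3 to 3 µM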;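 on Downregulated Genes: Genes in Common (number): drug dose range 0.3 to 3 µM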;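 on Upregulated Genes: AZA-Specific / DAC-Specific Genes (number): drug dose range 0.3 to 3 µM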;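 on Upregulated Genes: Genes in Common (number): drug dose range 0.3 to 3 µM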
Method: Cells were lysed using the TRIzol reagent (Life Technologies Corporation) and total RNA was isolated using miRNeasy (Qiagen). Double-stranded cDNA and biotin-labeled cRNA were synthesized using 100 ng of total RNA using Ambion's MessageAmp Premier RNA Amplification Kit (ABI; Foster City, Calif.). Biotin-labeled cRNA, at 10 μg, was fragmented and hybridized to each human U133A 2.0 genechip (Affymetrix; Santa Clara, Calif.). The GC-RMA algorithm was used for normalization and all analyses were done using GeneSpring 7.3 (Agilent; Santa Clara, Calif.). Averaged signals from biological duplicate samples were used to determine fold change (Treated vs. Untreated), with an absolute fold change of ≧1.7 defining regulated genes. NextBio was used to identify regulated Gene Ontology biogroups from lists of regulated genes. The top 15 biogroups are those with the lowest p-values calculated within NextBio.
The number of genes modulated in common between the two drugs was low.
Functional groupings of the modulated genes were determined using Gene Ontology classifications in Nextbio (http://www.nextbio.com/).

[7] = Homo sapiens, NCI-H460, 72 hours

Structure (SMILES)	HillSlope (A549 cells [1])	LogIC50 (A549 cells [1])	EC50 (A549 cells [1]) [µM]	IC50 (A549 cells [1]) [µM]	HillSlope (H460 cells; 72 hours)	LogIC50 (H460 cells; 72 hours)	IC50 (H460 cells; [7]) [µM]	HillSlope (H1299 cells [2])	LogIC50 (H1299 cells [2])	EC50 (H1299 cells [2]) [µM]	IC50 (H1299 cells [2]) [µM]	Cell cycle distribution (NIM DAPI) (A549 cells [3]; 48-hour treatment, 0.3-10 μM)	Cell cycle distribution (NIM DAPI) (A549 cells [3]; 72-hour treatment, 0.3-10 μM)	Cell cycle distribution (NIM DAPI) (A549 cells [3]; summary of studies)	Cell cycle distribution (NIM DAPI) (H1299 cells [4]; 72-hour treatment, 0.3-10 μM)	Cell cycle distribution (NIM DAPI) (H1299 cells [4]; summary of studies)	Cell cycle distribution (NIM DAPI) (H1975 cells)	Early- and late-apoptotic cell populations (AnnexinV/7-AAD) (NSCLC cell types)	Concentration of peak hypomethylation (LINE-1) ([5]; 48 or 72 hours)	DNA hypomethylation (LINE-1 methylation) [5]	further results
Nc1ncn([C@H]2C[C@H](O)[C@@H](CO)O2)c(=O)n1 [DAC, 5-aza-2′-deoxycytidine]	−0.4617	1.556	> 25	35.9	−0.3814	2.053	113	−0.4536	0.7153	5.2	5.19	induced an increase of cells in G2/M	induced an increase of cells in G2/M	induced an increase of cells in G2/M	induced accumulation of cells in G2/M and Sub-G1; also recorded: induced accumulation of cells in Sub-G1 while DAC also caused an increase of cells in G2/M	induced accumulation of cells in Sub-G1 while DAC also caused an increase of cells in G2/M	slight increases in G2/M and Sub-G1	very slight increase in these cell populations	0.1 μM	induced DNA hypomethylation; also recorded: caused a decrease in LINE-1 methylation	EC50 (H460 cells; Homo sapiens, NCI-H460, H460, 72 hours, read-out: EC50 of effect on viability): > 25 µM; Cell cycle distribution (NIM DAPI) (H1299 cells [4]; 48-hour treatment, 0.3-10 μM): induced accumulation of cells in G2/M; Potency in decreasing LINE-1 methylation relative to AZA ([5]; 48 or 72 hours): 3- to 10 fold; DNMT1 depletion (DNMT1): time- and dose-dependent depletion; Fold more genes modulated than AZA (H1299 cells [6]; H1299 (stated for A549 and H1299 together), 0.3 μM): 4- to 20 fold; Downregulated Genes: AZA-Specific / DAC-Specific Genes (number) (H1299 cells [6]; 0.3 μM): 121; Upregulated Genes: AZA-Specific / DAC-Specific Genes (number) (H1299 cells [6]; 0.3 μM): 214; Downregulated Genes: Genes in Common (number) (H1299 cells [6]; 0.3 μM): 45; Upregulated Genes: Genes in Common (number) (H1299 cells [6]; 0.3 μM): 55; Downregulated Genes: AZA-Specific / DAC-Specific Genes (number) (H1299 cells [6]; 1.0 μM): 170; Upregulated Genes: AZA-Specific / DAC-Specific Genes (number) (H1299 cells [6]; 1.0 μM): 238; Downregulated Genes: Genes in Common (number) (H1299 cells [6]; 1.0 μM): 107; Upregulated Genes: Genes in Common (number) (H1299 cells [6]; 1.0 μM): 135; Downregulated Genes: AZA-Specific / DAC-Specific Genes (number) (H1299 cells [6]; 3.0 μM): 257; Upregulated Genes: AZA-Specific / DAC-Specific Genes (number) (H1299 cells [6]; 3.0 μM): 303; Downregulated Genes: Genes in Common (number) (H1299 cells [6]; 3.0 μM): 153; Upregulated Genes: Genes in Common (number) (H1299 cells [6]; 3.0 μM): 173
Nc1ncn([C@@H]2O[C@H](CO)[C@@H](O)[C@H]2O)c(=O)n1 [AZA, 4-amino-1-β-D-ribofuranosyl-1,3,5-triazin-2(1H)-one]	−1.108	0.8033	6.4	6.36	−0.8940	0.2413	1.74	−1.138	0.7095	5.1	5.12	induced accumulation of cells in G2/M and Sub-G1	induced accumulation of cells in G2/M and Sub-G1	induced accumulation of cells in G2/M and Sub-G1	induced accumulation of cells in G2/M and Sub-G1	induced accumulation of cells in Sub-G1	decrease of cells in G0/G1 and accumulation of cells in G2/M and Sub-G1	dramatic increase in early-apoptotic (AnnexinV+ 7-AAD−) and late-apoptotic (AnnexinV+ 7-AAD+) cells	0.3-1 μM	induced DNA hypomethylation; also recorded: caused a decrease in LINE-1 methylation	EC50 (H460 cells; H460, 72 hours, read-out: EC50 of effect on viability): 1.7 µM; EC50 (H460 cells; Homo sapiens, NCI-H460, 72 h, H460, read-out: EC50 of effect on viability): 1.24 µM; DNMT1 depletion (DNMT1): time- and dose-dependent depletion; Downregulated Genes: AZA-Specific / DAC-Specific Genes (number) (H1299 cells [6]; 0.3 μM): 33; Upregulated Genes: AZA-Specific / DAC-Specific Genes (number) (H1299 cells [6]; 0.3 μM): 10; Downregulated Genes: Genes in Common (number) (H1299 cells [6]; 0.3 μM): 45; Upregulated Genes: Genes in Common (number) (H1299 cells [6]; 0.3 μM): 55; Downregulated Genes: AZA-Specific / DAC-Specific Genes (number) (H1299 cells [6]; 1.0 μM): 393; Upregulated Genes: AZA-Specific / DAC-Specific Genes (number) (H1299 cells [6]; 1.0 μM): 435; Downregulated Genes: Genes in Common (number) (H1299 cells [6]; 1.0 μM): 107; Upregulated Genes: Genes in Common (number) (H1299 cells [6]; 1.0 μM): 135; Downregulated Genes: AZA-Specific / DAC-Specific Genes (number) (H1299 cells [6]; 3.0 μM): 991; Upregulated Genes: AZA-Specific / DAC-Specific Genes (number) (H1299 cells [6]; 3.0 μM): 1368; Downregulated Genes: Genes in Common (number) (H1299 cells [6]; 3.0 μM): 153; Upregulated Genes: Genes in Common (number) (H1299 cells [6]; 3.0 μM): 173
